The supplement of paper PMC10331698
± gives the standard deviation of the averaged measurements.

Tests used:
Experiment in all cases: level (log10 ratio to DMSO vehicle control); higher = higher biomarker level / cell amount than vehicle control
[1] = compound: C=CC(=O)OCC(F)(F)C(F)(F)C(F)(F)COC(=O)C=C [1H,1H,5H,5H-Perfluoro-1,5-pentanediol diacrylate]; details: 6700 nM; in DMSO
Description: (§1)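 BioMAP Diversity Plus panel of 12 human primary cell co-culture systems (3C, 4H, LPS, SAg, BT, BF4T, BE3C, CASM3C, HDF3CGF, KF3CT, MyoF, Mphg). Compounds were added 1 h before stimulation and left for 24 h (MyoF 48 h; BT 72 h for soluble read-outs or 6 d for IgG). Biomarkers were read by ELISA, cytotoxicity by SRB, PBMC viability and proliferation by Alamar Blue. Each well value was divided by the mean of 8 DMSO control wells on the same plate and log10 transformed; duplicate blinded samples were tested at 4 concentrations.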

[2] = compound: FC(F)(F)C(F)(F)C(F)(F)C(F)(F)C(F)(F)C(F)(F)C(F)(F)I [1-Iodopentadecafluoroheptane]; details: in DMSO
Description: as §1

[3] = compound: FC(F)(F)C(F)(F)CNCC(F)(F)C(F)(F)F [Bis(1H,1H-perfluoropropyl)amine]; details: in DMSO
Description: as §1

[4] = compound: COC(=O)C(F)(F)C(F)(F)OC(F)(C(F)(F)F)C(F)(F)OC(F)=C(F)F [Methyl perfluoro(3-(1-ethenyloxypropan-2-yloxy)propanoate)]; details: in DMSO
Description: as §1

[5] = compound: NC(=O)C(F)(F)C(F)(F)C(F)(F)C(F)F; details: in DMSO
Description: as §1

Heptafluorobutyl iodide = compound: FC(F)(F)C(F)(F)C(F)(F)CI [Heptafluorobutyl iodide]; details: in DMSO
Description: as §1

Row | Test System | level (log10) [1] | level (log10) ([2]; 6700 nM) | level (log10) ([2]; 20000 nM) | level (log10) ([3]; 6700 nM) | level (log10) ([3]; 20000 nM) | level (log10) ([3]; 60000 nM) | level (log10) ([4]; 6700 nM) | level (log10) ([4]; 20000 nM) | level (log10) ([5]; 6700 nM) | level (log10) ([5]; 20000 nM) | level (log10) ([5]; 60000 nM) | level (log10) (Heptafluorobutyl iodide; 6700 nM) | level (log10) (Heptafluorobutyl iodide; 20000 nM) | level (log10) (Heptafluorobutyl iodide; 60000 nM)
1 | 3C:CCL2/MCP-1 | -0.026 ± 0.0042 | -0.0175 ± 0.005 | 0.023 ± 0.027 | 0.004 ± 0.031 | -0.0225 ± 0.012 | 0.006 ± 0.016 | 0.0045 ± 0.0064 | 0.0175 ± 0.032 | -0.01 ± 0.013 | -0.0135 ± 0.011 | 0.015 ± 0.042 | 0.014 ± 0.051 | -0.014 ± 0.041 | 0.007 ± 0.037
2 | 3C:CD54/ICAM-1 | -0.03 ± 0.014 | -0.0115 ± 0.00071 | 0.014 ± 0.016 | 0 ± 0.016 | 0.001 ± 0.0085 | 0.006 ± 0.0014 | -0.02 ± 0.0042 | -0.0045 ± 0.016 | -0.0095 ± 0.013 | -0.0115 ± 0.019 | -0.0095 ± 0.025 | -0.0075 ± 0.015 | -0.0035 ± 0.0092 | -0.0055 ± 0.005
3 | 3C:CD62E/E-Selectin | -0.135 ± 0.049 | -0.0085 ± 0.00071 | -0.003 ± 0.011 | -0.0115 ± 0.0092 | -0.0105 ± 0.022 | 0.008 ± 0.024 | -0.034 ± 0.011 | -0.031 ± 0.013 | -0.0055 ± 0.022 | -0.027 ± 0.0014 | -0.016 ± 0.018 | -0.012 ± 0.024 | -0.0115 ± 0.0021 | -0.0165 ± 0.03
4 | 3C:CD106/VCAM-1 | -0.179 ± 0.025 | -0.0165 ± 0.016 | -0.005 ± 0.011 | -0.016 ± 0.027 | -0.027 ± 0.037 | -0.0025 ± 0.03 | -0.016 ± 0.0057 | -0.0235 ± 0.015 | -0.001 ± 0.024 | 0.0135 ± 0.0021 | 0.007 ± 0.016 | -0.0115 ± 0.00071 | -0.0045 ± 0.028 | -0.0045 ± 0.0078
5 | 3C:CD141/Thrombomodulin | -0.124 ± 0.013 | -0.0215 ± 0.071 | -0.008 ± 0.081 | 0.0205 ± 0.043 | 0.0255 ± 0.04 | 0.046 ± 0.058 | -0.036 ± 0.02 | -0.028 ± 0.034 | -0.0285 ± 0.074 | 0 ± 0.03 | -0.0075 ± 0.026 | -0.0335 ± 0.04 | -0.0305 ± 0.005 | -0.025 ± 0.014
6 | 3C:CD142/Tissue Factor | -0.29 ± 0.1 | -0.0085 ± 0.015 | -0.052 ± 0.076 | 0.038 ± 0.05 | -0.0105 ± 0.094 | 0.0165 ± 0.11 | 0.0415 ± 0.064 | 0.0255 ± 0.0064 | -0.0025 ± 0.066 | 0.006 ± 0.033 | 0.0115 ± 0.036 | -0.0315 ± 0.019 | 0.0095 ± 0.016 | -0.0155 ± 0.019
7 | 3C:CXCL8/IL-8 | -0.0045 ± 0.018 | 0.004 ± 0.0057 | 0.0655 ± 0.021 | -0.0005 ± 0.0092 | 0.0005 ± 0.052 | 0.0445 ± 0.093 | 0.0075 ± 0.046 | 0.0485 ± 0.061 | 0.0025 ± 0.016 | -0.007 ± 0.0042 | 0.012 ± 0.0099 | -0.026 ± 0.018 | -0.0225 ± 0.019 | -0.0025 ± 0.04
8 | 3C:CXCL9/MIG | -0.017 ± 0.0085 | 0.001 ± 0.0099 | -0.002 ± 0.0042 | 0.0005 ± 0.013 | 0.003 ± 0.0071 | 0.016 ± 0.025 | -0.0025 ± 0.012 | -0.0005 ± 0.00071 | -0.0095 ± 0.011 | -0.012 ± 0.0014 | -0.0045 ± 0.0021 | -0.01 ± 0.0028 | -0.0095 ± 0.0021 | 0.0025 ± 0.0035
9 | 3C:HLA-DR | -0.092 ± 0.078 | -0.019 ± 0.0057 | -0.0075 ± 0.015 | 0.006 ± 0.0028 | 0.0005 ± 0.021 | 0.0145 ± 0.03 | 0.002 ± 0.0014 | 0.0075 ± 0.0078 | -0.006 ± 0.02 | -0.002 ± 0.016 | -0.005 ± 0.014 | -0.0255 ± 0.013 | -0.0125 ± 0.016 | -0.0045 ± 0.013
10 | 3C:Proliferation | -0.379 ± 0.12 | 0.0035 ± 0.013 | -0.0125 ± 0.0078 | 0.008 ± 0.023 | 0.0205 ± 0.00071 | -0.0025 ± 0.018 | -0.056 ± 0.048 | -0.111 ± 0.0092 | -0.0385 ± 0.049 | -0.038 ± 0.061 | -0.03 ± 0.031 | -0.0165 ± 0.00071 | 0.005 ± 0.023 | 0.014 ± 0.041
11 | 3C:SRB | -0.0305 ± 0.011 | -0.001 | 0.001 ± 0.0014 | -0.02 ± 0.021 | 0.0105 ± 0.0092 | 0.0075 ± 0.0064 | 0.006 ± 0.0071 | 0.004 ± 0.0042 | -0.0075 ± 0.019 | -0.013 ± 0.0014 | -0.019 ± 0.023 | -0.0045 ± 0.0064 | -0.0025 ± 0.012 | 0.0025 ± 0.021
12 | 4H:CCL2/MCP-1 | -0.058 ± 0.0028 | -0.015 ± 0.033 | 0.0095 ± 0.037 | -0.0345 ± 0.012 | -0.035 ± 0.0042 | -0.0105 ± 0.026 | -0.0055 ± 0.019 | 0.016 ± 0.064 | -0.0155 ± 0.032 | -0.039 ± 0.031 | 0.029 ± 0.04 | -0.007 ± 0.027 | -0.0215 ± 0.011 | -0.0265 ± 0.021
13 | 4H:CCL26/Eotaxin-3 | -0.214 ± 0.037 | 0.0365 ± 0.016 | 0.032 ± 0.027 | 0.06 ± 0.045 | 0.0245 ± 0.059 | 0.041 ± 0.064 | -0.001 ± 0.016 | -0.0425 ± 0.026 | 0.0095 ± 0.037 | 0.0315 ± 0.029 | 0.0275 ± 0.016 | 0.0215 ± 0.023 | 0.0385 ± 0.023 | 0.0485 ± 0.032
14 | 4H:CD62P/P-selectin | -0.0825 ± 0.018 | 0.0125 ± 0.021 | 0.0035 ± 0.022 | -0.0155 ± 0.025 | -0.02 ± 0.0028 | 0.005 ± 0.013 | 0.0115 ± 0.079 | 0.0095 ± 0.073 | -0.017 | -0.017 ± 0.031 | 0.0195 ± 0.029 | -0.0515 ± 0.06 | -0.058 ± 0.061 | -0.0135 ± 0.053
15 | 4H:CD87/uPAR | -0.0665 ± 0.13 | -0.013 ± 0.023 | 0.0035 ± 0.012 | -0.0665 ± 0.029 | -0.027 ± 0.035 | -0.047 ± 0.064 | 0.0215 ± 0.019 | 0.047 ± 0.044 | 0.0335 ± 0.013 | 0.044 ± 0.033 | 0.006 ± 0.038 | 0.0585 ± 0.04 | 0.0055 ± 0.0035 | -0.024 ± 0.025
16 | 4H:CD106/VCAM-1 | -0.032 ± 0.045 | -0.018 ± 0.0042 | -0.0005 ± 0.0035 | 0.0125 ± 0.016 | 0.006 ± 0.035 | 0.0155 ± 0.039 | -0.01 ± 0.0028 | -0.0385 ± 0.0035 | -0.0145 ± 0.005 | -0.021 ± 0.0085 | -0.007 ± 0.0057 | -0.0215 ± 0.005 | -0.0345 ± 0.026 | 0.0155 ± 0.012
17 | 4H:SRB | -0.0105 ± 0.019 | 0.0015 ± 0.0092 | 0.0125 ± 0.005 | -0.0245 ± 0.013 | 0 ± 0.017 | 0.0015 ± 0.013 | -0.0015 ± 0.00071 | 0.007 ± 0.014 | -0.0195 ± 0.0078 | -0.0055 ± 0.005 | -0.017 ± 0.021 | -0.001 ± 0.0028 | 0.0045 ± 0.0064 | 0.011 ± 0.0099
18 | 4H:VEGFR2 | -0.0225 ± 0.035 | 0.0055 ± 0.0092 | 0.06 ± 0.024 | 0.0065 ± 0.028 | 0.0135 ± 0.023 | -0.009 | -0.008 ± 0.014 | 0.006 ± 0.034 | 0 ± 0.0042 | -0.006 ± 0.0099 | -0.001 ± 0.054 | -0.0075 ± 0.005 | 0.0155 ± 0.063 | 0.0445 ± 0.036
19 | BE3C:Keratin 8/18 | -0.0055 ± 0.044 | -0.0075 ± 0.011 | -0.012 | -0.008 ± 0.0028 | -0.007 ± 0.0014 | 0.006 ± 0.024 | -0.0095 ± 0.049 | -0.004 ± 0.025 | -0.0045 ± 0.0092 | -0.0025 ± 0.005 | -0.0185 ± 0.033 | 0.0025 ± 0.0078 | -0.0025 ± 0.00071 | 0.005 ± 0.013
20 | BE3C:MMP-9 | -0.0485 ± 0.0078 | -0.014 ± 0.035 | -0.0465 ± 0.015 | -0.026 ± 0.0042 | -0.0175 ± 0.011 | 0.009 ± 0.042 | -0.041 ± 0.038 | -0.004 ± 0.0057 | -0.007 ± 0.0014 | -0.0045 ± 0.0092 | 0.0095 ± 0.023 | -0.005 ± 0.0014 | -0.0085 ± 0.0064 | 0.0115 ± 0.015
